Test systems include NCI-H226; A549; SF-295; IGROV-1; HCT-15; OVCAR-5; KM12; EKVX; LOX IMVI; SF-268; HCC 2998; K562; SK-OV-3; MDA-MB-231; SN12C; COLO 205; SK-MEL-28; MDA-MB-435; NCI-H460; OVCAR-4.
Common to all, as to assay: NCI-60 cell line screen, 48 h

From ChEMBL document CHEMBL1201862, “PubChem BioAssay data set” (2004) come the findings set out here.

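Method: 48-hour compound exposure of cells in 96-well plates, five concentrations, linear interpolation of endpoints. GI50 = concentration required for 50% inhibition of growth.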 Activity calls are given as the source filed them. Cut-off read from the data, not from the text of the source: active = GI50 up to about 1.1 µM and inactive = higher. Square brackets hold non-standard residues; d marks the D form. Peptide text beside a SMILES is read from it. Ac5c = NC1(C(=O)O)CCCC1 Some results are limits rather than exact numbers.

On to `COc1ccc2ccccc2c1C1NC(=O)c2ccccc2N1` (stereo not drawn), for which the GI50 with NCI-H226 is 1.57 µM (inactive); in the test with A549, 1.51 µM (inactive); in the test on SF-295, 0.578 µM (active); in the test with IGROV-1, 1.72 µM (inactive); in the test with HCT-15, 0.436 µM; with OVCAR-5, 3.39 µM (inactive). Also, the GI50 was 0.733 µM (active) in the test on KM12; 2.51 µM (inactive) with EKVX; 0.995 µM (active) in the test on LOX IMVI; 3.08 µM (inactive) with SF-268; 1.95 µM (inactive) with HCC 2998; 0.279 µM (active) in the test with K562. Besides, the GI50 was 2.82 µM (inactive) in the test on SK-OV-3; 3.63 µM (inactive) in the test on MDA-MB-231; 2.67 µM (inactive) in the test on SN12C; 1.87 µM (inactive) in the test on COLO 205; 0.802 µM (active) in the test on SK-MEL-28; 0.234 µM (active) in the test on MDA-MB-435. Besides, in the test on NCI-H460, the GI50 was 1.26 µM (inactive).

For `O=C1/C(=C/c2cccc(Oc3ccccc3)c2)N=C(c2ccccc2)N1c1nc2ccc(Sc3ccccc3)cc2[nH]1`, the GI50 in the test on A549 was 42.1 µM (inactive); with SF-295, 19.7 µM (inactive); in the test with IGROV-1, 46.9 µM (inactive); in the test with HCT-15 it was 28 µM; in the test with OVCAR-5, 57.8 µM (inactive); with KM12, 29.6 µM (inactive). In addition, the GI50 was 44.1 µM (inactive) in the test with EKVX; 30.9 µM (inactive) in the test on LOX IMVI; 37.7 µM (inactive) in the test on SF-268; 13.3 µM (inactive) in the test with HCC 2998; 23.7 µM (inactive) in the test with K562; 25.6 µM (inactive) in the test with SK-OV-3. Moreover, the GI50 is 19.8 µM (inactive) with MDA-MB-231; 20.7 µM (inactive) in the test on SN12C; 16.9 µM (inactive) in the test on COLO 205; 47.3 µM (inactive) with OVCAR-4; 41.3 µM (inactive) in the test on SK-MEL-28; 15.4 µM (inactive) with MDA-MB-435. Besides, the GI50 in the test on NCI-H460 is 23 µM (inactive).

Take `CCc1nnc(CC)n1-n1c(Cc2ccccc2)n[nH]c1=O`: the GI50 is > 100 µM (inactive) in the test on A549; > 100 µM (inactive) in the test with SF-295; > 100 µM (inactive) in the test with IGROV-1; over 100 µM in the test on HCT-15; > 100 µM (inactive) in the test on OVCAR-5; > 100 µM (inactive) with KM12. Moreover, the GI50 in the test on EKVX, with LOX IMVI, in the test on SF-268, in the test on HCC 2998, with K562 and in the test with SK-OV-3 was > 100 µM (inactive) each time. Besides, the GI50 in the test with MDA-MB-231, in the test with SN12C, with COLO 205, in the test with OVCAR-4, with SK-MEL-28 and with MDA-MB-435 was > 100 µM (inactive) in each case.

Regarding `CNC(=O)c1nnn(Cc2ccccc2)c1S`, the GI50 was > 100 µM (inactive) in the test on NCI-H226; > 100 µM (inactive) in the test on A549; > 100 µM (inactive) in the test on SF-295; > 100 µM (inactive) in the test with IGROV-1; over 100 µM in the test on HCT-15; > 100 µM (inactive) in the test on OVCAR-5. Besides, the GI50 with KM12, in the test with EKVX, in the test on HCC 2998, in the test on K562, in the test on SK-OV-3 and with MDA-MB-231 was > 100 µM (inactive) each time. In addition, the GI50 in the test on SN12C, with COLO 205, in the test with OVCAR-4, with SK-MEL-28, in the test with MDA-MB-435 and with NCI-H460 was > 100 µM (inactive) each time.

`NC(=O)C(c1ccccc1)N1OC2C(=O)N(c3cccc4ccccc34)C(=O)C2C1c1c2ccccc2c(Cl)c2ccccc12` (stereo not drawn): the GI50 in the test with NCI-H226 is 6.25 µM (inactive); in the test on A549, 13.9 µM (inactive); with SF-295 it was 9.75 µM (inactive); in the test on IGROV-1, 11.7 µM (inactive); in the test with HCT-15, 4.21 µM; in the test on OVCAR-5, 9.66 µM (inactive). The GI50 in the test on KM12 was 1.59 µM (inactive); in the test with EKVX, 11.6 µM (inactive); in the test on LOX IMVI it was 6.1 µM (inactive); with SF-268, 9.1 µM (inactive); with K562 it was 8.15 µM (inactive); with SK-OV-3, 19 µM (inactive). Also, the GI50 with MDA-MB-231 was 9.25 µM (inactive); in the test with SN12C, 8.47 µM (inactive); in the test with COLO 205, 7.85 µM (inactive); with OVCAR-4 it was 9.93 µM (inactive); in the test on SK-MEL-28 it was 12.8 µM (inactive); in the test with MDA-MB-435, 6.92 µM (inactive). Also, the GI50 in the test on NCI-H460 was 9.31 µM (inactive).

As for `COc1cccc(C=C2N=C(C)N(n3c(-c4ccccc4)nc4ccccc4c3=O)C2=O)c1`, the GI50 was > 100 µM (inactive) in the test with NCI-H226; > 100 µM (inactive) in the test with A549; 95.5 µM (inactive) in the test on SF-295; > 100 µM (inactive) with IGROV-1; 77.1 µM in the test on HCT-15; > 100 µM (inactive) with KM12. Also, the GI50 in the test on EKVX, with LOX IMVI, in the test with SF-268, in the test with HCC 2998, in the test with K562 and in the test on SK-OV-3 was > 100 µM (inactive) each time. The GI50 with MDA-MB-231, with SN12C, with COLO 205, with SK-MEL-28, in the test with MDA-MB-435 and with NCI-H460 was > 100 µM (inactive) throughout.

In the case of `Nc1nc(Cl)cc(NCC2(CO)CCCCC2)n1`, the GI50 with NCI-H226 is > 100 µM (inactive); in the test on A549, > 100 µM (inactive); with SF-295, > 100 µM (inactive); with IGROV-1 it was > 100 µM (inactive); in the test on HCT-15, over 100 µM; with OVCAR-5, > 100 µM (inactive). Also, the GI50 is > 100 µM (inactive) with KM12; 67 µM (inactive) in the test with EKVX; 49.3 µM (inactive) in the test on LOX IMVI; > 100 µM (inactive) in the test on SF-268; 94 µM (inactive) in the test with K562; > 100 µM (inactive) in the test with SK-OV-3. Moreover, the GI50 is > 100 µM (inactive) in the test with MDA-MB-231; 81.1 µM (inactive) in the test with SN12C; > 100 µM (inactive) in the test on COLO 205; 80.7 µM (inactive) with OVCAR-4; > 100 µM (inactive) with SK-MEL-28; > 100 µM (inactive) in the test on MDA-MB-435. For the same compound, the GI50 in the test with NCI-H460 is > 100 µM (inactive).

Consider `CCOC(=O)c1c(-c2ccc(OC)cc2)c(C#N)c(=S)n(C2OC(CO)C(O)C(O)C2O)c1-c1ccccc1` (stereo not drawn), for which the GI50 with A549 was > 100 µM (inactive); with SF-295, 44.9 µM (inactive); with IGROV-1, 59.6 µM (inactive); in the test with HCT-15 it was 56 µM; in the test on OVCAR-5, > 100 µM (inactive); in the test on KM12, 51.2 µM (inactive). The GI50 is 41.9 µM (inactive) with LOX IMVI; 68.7 µM (inactive) in the test with SF-268; 39.6 µM (inactive) in the test with HCC 2998; 34.4 µM (inactive) in the test on K562; 90.6 µM (inactive) with SK-OV-3; 36 µM (inactive) with MDA-MB-231. Further, the GI50 with SN12C is 42.7 µM (inactive); in the test on COLO 205 it was 49.3 µM (inactive); in the test on OVCAR-4 it was 34.3 µM (inactive); in the test with SK-MEL-28 it was 50.4 µM (inactive); in the test on MDA-MB-435 it was 30.8 µM (inactive); with NCI-H460, 42.7 µM (inactive).

Take `COC(=O)[C@@H](OC(C)=O)[C@@H](OC(C)=O)c1nnc2ccc(Cl)nn12`: the GI50 in the test on A549 is > 100 µM (inactive); in the test with SF-295 it was > 100 µM (inactive); in the test with IGROV-1, 85.3 µM (inactive); with HCT-15, over 100 µM; in the test on OVCAR-5, > 100 µM (inactive); in the test on KM12, > 100 µM (inactive). For the same compound, the GI50 with EKVX is > 100 µM (inactive); in the test with LOX IMVI, > 100 µM (inactive); in the test with SF-268, > 100 µM (inactive); in the test on HCC 2998, 36.2 µM (inactive); with SK-OV-3 it was > 100 µM (inactive); with MDA-MB-231, > 100 µM (inactive). In addition, the GI50 in the test with SN12C was > 100 µM (inactive); in the test with COLO 205 it was > 100 µM (inactive); with OVCAR-4, > 100 µM (inactive); in the test with SK-MEL-28, 97.7 µM (inactive); in the test with MDA-MB-435 it was > 100 µM (inactive); with NCI-H460, > 100 µM (inactive).

For `CC(O)=NC(Cc1ccc2ccccc2c1)C(O)=NC(Cc1ccc(Cl)cc1)C(O)=NC(Cc1c[nH]c2ccccc12)C(O)=NC(CO)C(O)=NC(Cc1ccc(O)cc1)C(O)=NC(CCCN=C(N)N)C(O)=NC(CC(C)C)C(O)=NC(CCCN=C(N)N)C(=O)N1CCCC1C(O)=NC(C)C(=N)O` (stereo not drawn), the GI50 in the test with NCI-H226 was 30.1 µM (inactive); in the test with A549, 42.6 µM (inactive); with SF-295, 27.9 µM (inactive); with IGROV-1 it was 33.7 µM (inactive); with HCT-15, 63 µM; in the test on OVCAR-5, 41.3 µM (inactive). Also, the GI50 is 41.1 µM (inactive) in the test with KM12; 39.5 µM (inactive) with EKVX; > 100 µM (inactive) with SF-268; 63.4 µM (inactive) with HCC 2998; > 100 µM (inactive) in the test with K562; 43.5 µM (inactive) in the test with SK-OV-3. Moreover, the GI50 is 59.7 µM (inactive) in the test on MDA-MB-231; 37.5 µM (inactive) with SN12C; 26.3 µM (inactive) in the test on COLO 205; 74 µM (inactive) with OVCAR-4; 40.1 µM (inactive) in the test on MDA-MB-435; 54.7 µM (inactive) with NCI-H460.

For `NCC(=O)NC1(C(=O)O)CCCC1` (H-Gly-[Ac5c]-OH), the GI50 is > 100 µM (inactive) in the test with A549; > 100 µM (inactive) with SF-295; > 100 µM (inactive) with IGROV-1; over 100 µM in the test on HCT-15; > 100 µM (inactive) with OVCAR-5; > 100 µM (inactive) with KM12. In addition, the GI50 with EKVX, in the test on LOX IMVI, in the test with SF-268, in the test on HCC 2998, in the test on K562 and with SK-OV-3 was > 100 µM (inactive) in each case. The GI50 in the test on MDA-MB-231, with SN12C, in the test on COLO 205, in the test with OVCAR-4, with SK-MEL-28 and in the test on MDA-MB-435 was > 100 µM (inactive) in each case. Further, the GI50 in the test with NCI-H460 is > 100 µM (inactive).
